Assay [1] has as its system FBXW7-mediated protein degradation. In words: Ratiometric DsRed/EGFP protein level assay of full-length proteins with kinase inhibitors. Type of assay: cell-based, HEK293T cells. The following applies: for ZMIZ1 level: full-length ZMIZ1, HEK293T + FBXW7, inhibitor 2 µM. The protocol: (§1) HEK293T cells (purchased from ATCC, CRL-3216) were cultured in Dulbecco’s Modified Eagle’s Medium (DMEM, Gibco, Waltham, MA, USA) containing 10% FBS (Gibco, Cat# 10500064), 100 µg/mL Pen/strep (Sigma, P0781) and Amphotericin B (Thermo Fisher, 15290026) at 37 °C in an atmosphere of 5% CO2. Approximately 90,000 cells were plated in 24-well Greiner bio-one plates (#662-160). The next day cells were transfected with Lipofectamine 3000 reagent (L3000001, Invitrogen, Waltham, MA, USA) using the Opti-MEM reduced serum media (Gibco, 31985062). The transfection media was changed with complete DMEM after 4–6 h of transfection. Cells in a 24-well plate were transfected with 500 ng of plasmid DNA in total, for co-transfection each plasmid construct was used in 250 ng amount. For western blots, cells were washed in ice-cold PBS and harvested in SDS loading buffer and then subjected to SDS-PAGE. The samples were then transferred to nitrocellulose membrane. Primary antibodies were the following: Anti-V5 (Invitrogen; 1:5000 dilution), anti-FLAG (Sigma #F1804; 1:5000 dilution), anti-cMyc (#2276, Cell signaling, Danvers, MA, USA) 1:1000 dilution) and anti-tubulin (Sigma #T6199; 1:50,000 dilution). Secondary antibodies (IRDye® 800CW Goat anti-Mouse IgG, LiCOR #926-32210 and IRDye® 680CW Goat anti-Mouse IgG, LiCOR #926-68070; 1:5000 dilution) were used according to the recommendation of the manufacturer and blots were analyzed by Odyssey CLx imaging system (Li-Cor). Kinase inhibitors were used in 2 µM concentration added 6 h before protein level measurements: GSK3—CHR99021 (#S2924, Selleckchem, Munich, Germany), ERK1/2—SCH772984 (Selleckchem, #S7101), p38—SB202190 (Sigma-Aldrich, #S7067), and JNK—JNK-IN-8 (Selleckchem, #S4901). MG132 proteosomal inhibitor (Merck, #474790) was used in 10 µM concentration and cycloheximide (# 239763, Calbiochem, San Diego, CA, USA) was used in 100 µg/mL concentration. HEK293T cells were washed with 500 μL ice-cold PBS twice and gently collected using a pipette 48 h after transfection. The suspension was centrifuged at 500× g for 10 min at 4 °C. After centrifugation, the cell pellet was resuspended in 110 µL ice cold PBS and the fluorescence signal for EGFP (Excitation 485 nm; Emission 515 nm) and DsRed (Excitation 550 nm; Emission 580 nm) was measured in Corning 384-well microplate (#4514) using a plate reader (CytationTM 3, BioTek Instruments, Winooski, VT, USA).

The test system is the same in assay [2]. As to the kind of experiment: Western blot of protein levels in FBXW7-transfected cells. Type of assay: cell-based, HEK293T cells. The protocol: as §1, with “concentration.” for “concentration. HEK293T cells were washed with 500 μL ice-cold PBS twice and gently collected using a pipette 48 h after transfection. The suspension was centrifuged at 500× g for 10 min at 4 °C. After centrifugation, the cell pellet was resuspended in 110 µL ice cold PBS and the fluorescence signal for EGFP (Excitation 485 nm; Emission 515 nm) and DsRed (Excitation 550 nm; Emission 580 nm) was measured in Corning 384-well microplate (#4514) using a plate reader (CytationTM 3, BioTek Instruments, Winooski, VT, USA).”
On the technique in general: In western blotting, separated proteins are transferred to a membrane and probed.

In the next assay the target is T1, Skp1-FBXW7 complex (Homo sapiens, UniProt P63208+Q969H0).
T1 construct: human FBXW7 (263-707) with an N-terminal hexa-histidine (His6) tag; His6 (N, cleaved yes); made in house; host or cells: E. coli Rosetta (DE3)
In words: Fluorescence polarization direct titration of labeled CCNE peptide. Type of assay: binding. The conditions noted are these: FP direct titration, 50 nM CF-labeled CCNE peptide with increasing Skp1-FBXW7; 20 mM Tris pH 8.0, 100 mM NaCl, 0.05% Brij35P, 2 mM TCEP; value printed in plot. The procedure: Truncated Skp1 (1-149) and human FBXW7 (263-707) with an N-terminal hexa-histidine (His6) tag were cloned into a bicistronic plasmid (pMG950) and were co-expressed in E. coli Rosetta (DE3) strain. The Skp1-FBXW7 complex was purified using affinity, anion exchange, and gel filtration chromatography. The DNA expression plasmid was transformed into E. coli Rosetta (DE3) strain and grown in LB until OD600 = 0.5, protein expression was induced with 100 µM isopropyl-β-d-1-thigalatopyaranoside (IPTG) overnight at 18 °C. The cell pellet was lysed, and the recombinant protein was purified using Ni-NTA agarose beads. Before further purification the His6-tag was removed by using the TEV protease and then the protein complex was further purified using anion exchange chromatography twice, first with a Resource Q and then with a Mono Q column (pH = 8). Finally, the complex was subjected to size-exclusion chromatography in 20 mM Tris, pH = 8, 150 mM NaCl, and 1 mM DTT using a Superdex200 10/300 column (GE Healthcare, Chicago, IL, USA). The eluted fractions were pooled together and were supplemented with 10% glycerol and 2 mM TCEP before concentration and storage. […]
In general terms: In fluorescence polarisation assays a small probe gives low polarisation when free and higher when bound to something large.

The subject of a further assay is FBXW7. In words: Ratiometric EGFP/DsRed protein degradation assay with degron probes. The following applies: HEK293T + FBXW7, MG132, EGFP/DsRed ratio. Type of assay: cell-based, human. The source says:
In order to be able to test putative phosphodegron motifs, a ratiometric protein level monitoring method was adapted to monitor MAPK controlled FBXW7 mediated protein degradation. Briefly, intact DsRed and an EGFP-chimera were expressed in HEK293T cells in equal amounts from an expression plasmid, giving an EGFP/DsRed fluorescence ratio close to one under non-degrading conditions. EGFP was fused to a probe comprised of a putative degron sequence and a known MAPK binding docking motif. EGFP signal is expected to diminish faster than DsRed in cells with more FBXW7 if the probe responded to degradation.
We started out from an intentionally general consensus motif of FBXW7 degrons, inspired by the liberal [TS]P..[TS]P pattern defined for yeast Cdc4 substrates, and scanned the human disordered part of the proteome using SliMSearch4 (the disorder score cut-off was 0.4 and flank length was 5). In all, 22 motifs from this list were subjectively chosen and tested in the ratiometric degradation assay giving only 5 positives (see Supplementary Table S1). Based on the results of this first round, by taking information both from the identified positives and negatives, the consensus motif definition was narrowed to requiring a proline at P + 2, but motifs were allowed to have a phospho-mimicking residue (D or E) at P + 4 because it had been formerly reported that this second phosphorylatable residue may be replaced by aspartate or glutamate. […] In the third round, hydrophobic amino acids were more strictly required at positions −1/−2 and P − 1/2/3 positions were further narrowed and P + 4 position was relaxed based on the identified negatives, which gave a higher hit rate (4 out of 6). This third round gave functional motifs at a good rate, but the used motif definition was very restrictive compared to other known motifs. Finally, in the fourth round, we gave up using an optimal consensus and established the positional relaxation model. […] Hits on this final, most predictive list are presented in Supplementary Table S2. All entries were filtered for motif locations by UniProt annotations, discarding all enzyme-inaccessible (e.g., extracellular) instances. Motifs that had any overlapping PFAM domain indicated were manually assessed using the AlphaFold EBI website. Out of these, only motifs that were highly accessible and located outside of confidently predicted folded domains were kept. We also added kinase consensus compatibility to every motif and the number of experiments where phosphorylation could be detected from PhosphoSitePlus.
The chimera degron module was ordered from IDT as gene Block (gBlock). It consisted of a coiled coil dimerization motif (GCN4: EELLSKNYHLENEVARLKK) to increase sensitivity by allowing multivalent binding, a MAPK binding docking motif (AAKG2: KKNASQKRRSLRVHIPDL), and the CycECO degron motif. The motifs were separated by Gly-Ser-Asn linkers and the gBlock was designed so that the motifs could be easily changed by using unique sets of restriction endonucleases. The gBlock was sub-cloned into the Gateway pENTR4 entry plasmid (Thermo Fisher, Waltham, MA, USA) using restriction enzymes (SalI and NotI). The pENTR4-chimera and the destination plasmid (MSCV-CMV-DsRed-IRES-EGFP-DEST from Addgene; 41941), [28]) were subjected to gateway cloning using LR clonase II enzyme (Invitrogen) to obtain the first DsRed-EGFP-chimera DNA construct containing the cycECO degron. Oligonucleotides corresponding to different degron sequences and docking motifs were ligated into the DsRed-EGFP-chimera DNA construct. The list of all the oligonucleotides used for cloning is provided in Supplementary Table S3. pcDNA3-FLAG-FBXW7α was a kind gift from Michael Pagano (New York University). The FBXW7 arginine mutant (Arg mutant: R465C; R479Q; R505L) was created using two-step PCR and cloned into the pcDNA3-FLAG plasmid. […]

The results in this text go back to publication PMC8955265, “Systematic Discovery of FBXW7-Binding Phosphodegrons Highlights Mitogen-Activated Protein Kinases as Important Regulators of Intracellular Protein Levels” (International Journal of Molecular Sciences, 2022).

Where a SMILES comes first, the peptide text is derived from it. [ ]: non-standard residue; d: D form. The star is where a group is joined. 5FAM = O=C1OC2(c3ccc(O)cc3Oc3cc(O)ccc32)c2ccc(C(=O)*)cc21; pT = C[C@@H](OP(=O)(O)O)[C@H](N)C(=O)O; pS = N[C@@H](COP(=O)(O)O)C(=O)O; Cbz = O=C(OCc1ccccc1)*

T1 sequence (Q969H0 263-707): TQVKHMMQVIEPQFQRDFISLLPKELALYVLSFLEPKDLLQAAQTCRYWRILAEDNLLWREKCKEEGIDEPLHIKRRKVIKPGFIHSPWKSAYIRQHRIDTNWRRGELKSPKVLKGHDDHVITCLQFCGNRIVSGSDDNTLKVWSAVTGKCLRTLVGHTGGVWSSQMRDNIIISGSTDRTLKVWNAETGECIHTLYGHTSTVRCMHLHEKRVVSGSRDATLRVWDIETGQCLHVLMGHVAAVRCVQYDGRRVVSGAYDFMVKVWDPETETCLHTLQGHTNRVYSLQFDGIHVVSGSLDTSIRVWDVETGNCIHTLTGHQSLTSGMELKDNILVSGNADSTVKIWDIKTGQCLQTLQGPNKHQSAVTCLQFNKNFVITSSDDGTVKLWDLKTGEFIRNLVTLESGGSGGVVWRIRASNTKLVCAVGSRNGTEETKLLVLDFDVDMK
T1 sequence (P63208 1-149 partner limits assumed): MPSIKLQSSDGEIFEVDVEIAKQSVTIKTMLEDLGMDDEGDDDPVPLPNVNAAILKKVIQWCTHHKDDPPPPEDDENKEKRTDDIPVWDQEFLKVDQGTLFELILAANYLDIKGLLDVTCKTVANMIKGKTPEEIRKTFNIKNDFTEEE

Regarding `Cc1cnc(-c2cnc(NCCNc3ccc(C#N)cn3)nc2-c2ccc(Cl)cc2Cl)[nH]1` [CHR99021], the “effect on FBXW7-mediated degradation of full-length constructs” value in assay [1] (HEK293T, inhibitor 2 µM added 6 h before DsRed/EGFP measurement) is recorded as “no effect”.

For the compound `Oc1ccc(-c2nc(-c3ccncc3)c(-c3ccc(F)cc3)[nH]2)cc1` [SB202190], in assay [2] (HEK293T co-transfected with Fusion WT and FBXW7, inhibitor 2 µM, anti-Myc western blot), the “FBXW7-mediated degradation of the JAZF1-SUZ12 fusion construct” value is “counteracted”. Besides, the “degradation of JAZF1” value in assay [1] (full-length JAZF1, HEK293T + FBXW7, inhibitor 2 µM, 6 h) is reported as “lower”. Besides, the ZMIZ1 level result in assay [1] (6 h) is on record as “affected”.

Regarding `O=C(Nc1ccc2[nH]nc(-c3ccncc3)c2c1)[C@@H]1CCN(CC(=O)N2CCN(c3ccc(-c4ncccn4)cc3)CC2)C1` [SCH772984], in assay [1] (6 h), the ZMIZ1 level result is reported as “affected”.

`Cc1cc(NC(=O)c2cccc(NC(=O)/C=C/CN(C)C)c2)ccc1Nc1nccc(-c2cccnc2)n1` [JNK-IN-8]: the “effect on ARID4B level” value in assay [1] (full-length ARID4B, HEK293T + FBXW7, inhibitor 2 µM, 6 h) is reported as “significant effect”. In addition, in assay [1] (6 h), the ZMIZ1 level result was “affected”.

Usually Kd stands for the constant that tells how readily two partners part at equilibrium. Take `CC(C)C[C@H](NC(=O)CNC(=O)[C@H](CO)NC(=O)[C@@H]1CCCN1C(=O)c1ccc2c(c1)C(=O)OC21c2ccc(O)cc2Oc2cc(O)ccc21)C(=O)N[C@@H](CC(C)C)C(=O)N[C@H](C(=O)N1CCC[C@H]1C(=O)N1CCC[C@H]1C(=O)N[C@@H](CCC(N)=O)C(=O)N[C@@H](COP(=O)(O)O)C(=O)NCC(=O)N[C@@H](CCCCN)C(=O)N[C@@H](CCCCN)C(=O)N[C@@H](CCC(N)=O)C(=O)O)[C@@H](C)OP(=O)(O)O` [fluorescently labeled CCNE peptide] (5FAM-PSGLL[pT]PPQ[pS]GKKQ-OH): on Skp1-FBXW7 complex, the Kd came to 2.8 ± 1.6 nM.

As for `CC(C)C[C@@H](C=O)NC(=O)[C@H](CC(C)C)NC(=O)[C@H](CC(C)C)NC(=O)OCc1ccccc1` [MG132] (Cbz-Leu-Leu-Leu-aldehyde), the “protein level of the CycECO-V5 probe” value in assay [2] (HEK293T transfected with FBXW7 plasmid, MG132 10 µM, anti-V5 western blot) is “counteracted the effect of FBXW7 expression”. For the same compound, the “protein levels of full-length constructs in the presence of FBXW7” value in assay [2] (KLF4, ETV5, ARID4B, CDT1, ZMIZ1, JAZF1 V5-tagged constructs, HEK293T, MG132 10 µM, western blot) is “counteracted the effect of FBXW7”. Further, the CycEco-EGFP probe degradation result in the assay with FBXW7 is recorded as “blocked”.
